Source: the supplement of paper PMC11451515

Columns and labels:
Settings in all cases: 48 h
[1] = test system: NOMO1; assay: cell viability relative to DMSO control; higher = less cytotoxic
Summary of the method: (§1)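 Viability was expressed as a per-plate percentage of DMSO wells, with cell-free wells as background. Leukemia cells (NOMO1 or SEM at 500 cells/well, P12-Ichikawa at 1000 cells/well) were adapted for at least four passages in each medium and seeded in 1536-well plates (5 μl). Library compounds in DMSO were pin-dosed over an 11-point threefold series from 47 μM to 0.79 nM, and CellTiter-Glo One luminescence was read after 48 h at 37°C.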

[2] = test system: P12-Ichikawa; assay: as above
Summary of the method: as §1

[3] = test system: SEM cells; assay: as above
Summary of the method: as §1

[4] = test system: NOMO1; assay: AUC of viability dose-response curve (% viability x log10 dose units); higher = less sensitive
Summary of the method: (§2)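 Library compounds in DMSO were applied for 48 h at 37°C at 11 threefold doses (47 μM to 0.79 nM) to medium-adapted leukemia cells in 1536-well plates holding 500 or 1000 cells/well. Luminescence from CellTiter-Glo One was normalised plate by plate against DMSO and cell-free wells. Area under the curve came from trapezoidal integration of a log-logistic fit, after scaling curves that rose above full viability and discarding those that failed quality control. The fit had four parameters and used log10 doses.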

[5] = test system: P12-Ichikawa; assay: as above
Summary of the method: as §2

[6] = test system: SEM cells; assay: as above
Summary of the method: as §2

Cn1c(=O)c2[nH]cnc2n(C)c1=O
cell viability [%]
Settings	[1]	[2]	[3]
HPLM + 10% dialyzed FBS, 0.000781 µM	120	104	102
HPLM + 10% dialyzed FBS, 0.00234 µM	111	113	112
HPLM + 10% dialyzed FBS, 0.00702 µM	121	116	107
HPLM + 10% dialyzed FBS, 0.0211 µM	122	114	109
HPLM + 10% dialyzed FBS, 0.0632 µM	92.5	111	108
HPLM + 10% dialyzed FBS, 0.19 µM	115	110	110
HPLM + 10% dialyzed FBS, 0.569 µM	120	116	98.6
HPLM + 10% dialyzed FBS, 1.71 µM	106	109	117
HPLM + 10% dialyzed FBS, 5.12 µM	110	114	105
HPLM + 10% dialyzed FBS, 15.4 µM	102	106	110
HPLM + 10% dialyzed FBS, 46.1 µM	84.8	104	102
RPMI 5 mM glucose + 10% FBS, 0.000781 µM	114	112	104
RPMI 5 mM glucose + 10% FBS, 0.00234 µM	103	113	107
RPMI 5 mM glucose + 10% FBS, 0.00702 µM	103	115	110
RPMI 5 mM glucose + 10% FBS, 0.0211 µM	104	117	98.1
RPMI 5 mM glucose + 10% FBS, 0.0632 µM	94	109	98.2
RPMI 5 mM glucose + 10% FBS, 0.19 µM	100	115	103
RPMI 5 mM glucose + 10% FBS, 0.569 µM	101	124	99.7
RPMI 5 mM glucose + 10% FBS, 1.71 µM	113	106	94.8
RPMI 5 mM glucose + 10% FBS, 5.12 µM	95.8	112	110
RPMI 5 mM glucose + 10% FBS, 15.4 µM	99	108	99
RPMI 5 mM glucose + 10% FBS, 46.1 µM	93.6	105	97.2
RPMI 5 mM glucose + 10% dialyzed FBS, 0.000781 µM	101	115	98.8
RPMI 5 mM glucose + 10% dialyzed FBS, 0.00234 µM	108	111	126
RPMI 5 mM glucose + 10% dialyzed FBS, 0.00702 µM	104	113	102
RPMI 5 mM glucose + 10% dialyzed FBS, 0.0211 µM	100	107	115
RPMI 5 mM glucose + 10% dialyzed FBS, 0.0632 µM	108	111	124
RPMI 5 mM glucose + 10% dialyzed FBS, 0.19 µM	96.3	116	113
RPMI 5 mM glucose + 10% dialyzed FBS, 0.569 µM	92.2	107	106
RPMI 5 mM glucose + 10% dialyzed FBS, 1.71 µM	99.7	108	114
RPMI 5 mM glucose + 10% dialyzed FBS, 5.12 µM	106	111	105
RPMI 5 mM glucose + 10% dialyzed FBS, 15.4 µM	97.5	99.7	124
RPMI 5 mM glucose + 10% dialyzed FBS, 46.1 µM	87.7	94.2	104

AUC of viability dose-response curve
Settings	[4]	[5]	[6]
HPLM + 10% dialyzed FBS	464	473	474
RPMI 5 mM glucose + 10% FBS	454	463	454
RPMI 5 mM glucose + 10% dialyzed FBS	457	468	477

O=C(C[C@@H]1C/C=C\CCC(=O)O[C@H](c2ccccc2)CNC1=O)NCc1ccc(Cl)cc1
cell viability [%]
Settings	[1]	[2]	[3]
HPLM + 10% dialyzed FBS, 0.000781 µM	112	99.1	77
HPLM + 10% dialyzed FBS, 0.00234 µM	125	110	109
HPLM + 10% dialyzed FBS, 0.00702 µM	117	79.7	46.9
HPLM + 10% dialyzed FBS, 0.0211 µM	125	117	111
HPLM + 10% dialyzed FBS, 0.0632 µM	111	126	109
HPLM + 10% dialyzed FBS, 0.19 µM	138	122	118
HPLM + 10% dialyzed FBS, 0.569 µM	133	116	128
HPLM + 10% dialyzed FBS, 1.71 µM	114	119	107
HPLM + 10% dialyzed FBS, 5.12 µM	121	123	107
HPLM + 10% dialyzed FBS, 15.4 µM	118	116	112
HPLM + 10% dialyzed FBS, 46.1 µM	114	117	118
RPMI 5 mM glucose + 10% FBS, 0.000781 µM	87.2	95.1	85.7
RPMI 5 mM glucose + 10% FBS, 0.00234 µM	106	117	102
RPMI 5 mM glucose + 10% FBS, 0.00702 µM	120	70	11.1
RPMI 5 mM glucose + 10% FBS, 0.0211 µM	109	112	88.8
RPMI 5 mM glucose + 10% FBS, 0.0632 µM	104	115	95.7
RPMI 5 mM glucose + 10% FBS, 0.19 µM	115	118	96.3
RPMI 5 mM glucose + 10% FBS, 0.569 µM	114	128	101
RPMI 5 mM glucose + 10% FBS, 1.71 µM	102	128	102
RPMI 5 mM glucose + 10% FBS, 5.12 µM	109	115	98.9
RPMI 5 mM glucose + 10% FBS, 15.4 µM	98.5	119	90.9
RPMI 5 mM glucose + 10% FBS, 46.1 µM	110	123	94
RPMI 5 mM glucose + 10% dialyzed FBS, 0.000781 µM	92.2	102	83.6
RPMI 5 mM glucose + 10% dialyzed FBS, 0.00234 µM	114	115	106
RPMI 5 mM glucose + 10% dialyzed FBS, 0.00702 µM	99.3	79.3	34.3
RPMI 5 mM glucose + 10% dialyzed FBS, 0.0211 µM	111	120	121
RPMI 5 mM glucose + 10% dialyzed FBS, 0.0632 µM	113	120	116
RPMI 5 mM glucose + 10% dialyzed FBS, 0.19 µM	117	120	128
RPMI 5 mM glucose + 10% dialyzed FBS, 0.569 µM	120	123	122
RPMI 5 mM glucose + 10% dialyzed FBS, 1.71 µM	125	119	104
RPMI 5 mM glucose + 10% dialyzed FBS, 5.12 µM	105	114	107
RPMI 5 mM glucose + 10% dialyzed FBS, 15.4 µM	111	120	103
RPMI 5 mM glucose + 10% dialyzed FBS, 46.1 µM	99.5	113	102

AUC of viability dose-response curve
Settings	[4]	[5]	[6]
HPLM + 10% dialyzed FBS	473	452	437
RPMI 5 mM glucose + 10% FBS	471	447	415
RPMI 5 mM glucose + 10% dialyzed FBS	465	457	436

CCC(=O)OC1CCC2C3CCC/4=C/C(=O)CC[C@@]4(C)C3CC[C@]12C (stereo not given in full)
cell viability [%]
Settings	[1]	[2]	[3]
HPLM + 10% dialyzed FBS, 0.000781 µM	89.8	116	104
HPLM + 10% dialyzed FBS, 0.00234 µM	112	120	107
HPLM + 10% dialyzed FBS, 0.00702 µM	128	126	110
HPLM + 10% dialyzed FBS, 0.0211 µM	120	129	118
HPLM + 10% dialyzed FBS, 0.0632 µM	122	126	132
HPLM + 10% dialyzed FBS, 0.19 µM	118	127	115
HPLM + 10% dialyzed FBS, 0.569 µM	130	132	128
HPLM + 10% dialyzed FBS, 1.71 µM	136	128	141
HPLM + 10% dialyzed FBS, 5.12 µM	136	129	123
HPLM + 10% dialyzed FBS, 15.4 µM	129	125	121
HPLM + 10% dialyzed FBS, 46.1 µM	135	117	137
RPMI 5 mM glucose + 10% FBS, 0.000781 µM	–	–	102
RPMI 5 mM glucose + 10% FBS, 0.00234 µM	–	–	107
RPMI 5 mM glucose + 10% FBS, 0.00702 µM	–	–	116
RPMI 5 mM glucose + 10% FBS, 0.0211 µM	–	–	119
RPMI 5 mM glucose + 10% FBS, 0.0632 µM	–	–	133
RPMI 5 mM glucose + 10% FBS, 0.19 µM	–	–	138
RPMI 5 mM glucose + 10% FBS, 0.569 µM	–	–	124
RPMI 5 mM glucose + 10% FBS, 1.71 µM	–	–	128
RPMI 5 mM glucose + 10% FBS, 5.12 µM	–	–	120
RPMI 5 mM glucose + 10% FBS, 15.4 µM	–	–	125
RPMI 5 mM glucose + 10% FBS, 46.1 µM	–	–	117
RPMI 5 mM glucose + 10% dialyzed FBS, 0.000781 µM	–	–	102
RPMI 5 mM glucose + 10% dialyzed FBS, 0.00234 µM	–	–	111
RPMI 5 mM glucose + 10% dialyzed FBS, 0.00702 µM	–	–	102
RPMI 5 mM glucose + 10% dialyzed FBS, 0.0211 µM	–	–	114
RPMI 5 mM glucose + 10% dialyzed FBS, 0.0632 µM	–	–	139
RPMI 5 mM glucose + 10% dialyzed FBS, 0.19 µM	–	–	114
RPMI 5 mM glucose + 10% dialyzed FBS, 0.569 µM	–	–	115
RPMI 5 mM glucose + 10% dialyzed FBS, 1.71 µM	–	–	137
RPMI 5 mM glucose + 10% dialyzed FBS, 5.12 µM	–	–	120
RPMI 5 mM glucose + 10% dialyzed FBS, 15.4 µM	–	–	127
RPMI 5 mM glucose + 10% dialyzed FBS, 46.1 µM	–	–	127

AUC of viability dose-response curve
Settings	[4]	[5]	[6]
HPLM + 10% dialyzed FBS	457	471	450
RPMI 5 mM glucose + 10% FBS	456	473	460
RPMI 5 mM glucose + 10% dialyzed FBS	458	466	448
